Legend:
[1] = tested on: RAGE ligand-dependent activation of RAGE; experiment: S100A8/A9-induced NFκB activation (p65 gene expression) in CHO cells expressing RAGE constructs; format: cell-based, human
Method: Generation of Transgenic Chinese Hamster Ovary Cells
100 ng of AT1R-Rluc8 construct was transfected into CHO cells using Lipofectamine 2000 (Thermo). Stable transfectants were selected using G418. AT1R—CHO were then transiently transfected with RAGE constructs using Lipofectamine 2000 (Invitrogen) and incubated for 16 h. The Homo sapiens AGER transcript variant 1 coding sequence (NM_001136) was synthesised and cloned between the NheI and XbaI sites of pCIneo (Promega) to generate the vector pCIneo-RAGE. This plasmid was then used to generate a library of mutant AGER clones (NP_001127). Primers 1-RAGE-SP-5′ and mCherry-XhoI-NotI-3′ were used to amplify the coding sequence of mCherry from the vector pmCherry-C1. The resultant PCR product was then used as template for a second PCR using primers 2-RAGE-SP-5′ and mCherry-XhoI-NotI-3′. The PCR product generated was digested with NheI and NotI and inserted between the NheI and NotI sites of pCIneo to generate pCIneo-SP-mCherry. The sequence of the insert was confirmed by DNA sequencing (Micromon, Monash University). […]
Cellular Expression of Pro-Inflammatory Markers and Mediators by Quantitative Real-Time PCR
After 2 hours of exposure to Ang II (1 μM) or the RAGE ligand, S100A8/A9 (5 ng/ml) cells were placed in Trizol, mRNA extracted and cDNA synthesized. Changes in the gene expression of the NFκB subunit, p65 (RelA) or NFκB-activated target genes (e.g ICAM-1, VCAM-1) were estimated by quantitative real-time RT-PCR, performed using the TaqMan system based on real-time detection of accumulated fluorescence (ABI Prism 7700, Perkin-Elmer Inc, PE Biosystems, Foster City, CA, USA). Gene expression was normalized to 18S mRNA and reported as fold change compared to the level of expression in untreated control mice/cells, which were given an arbitrary value of 1.
To measure the induction of NFκB activity by 1 μM Ang II, or 5 ng/ml of the RAGE-ligand S100A8/A9 as a signalling control, AT1R—CHO cells were transfected with 0.4 μg of plasmids encoding NFκB-SEAP or β-galactosidase (β-Gal) using Lipofectamine 2000 (Invitrogen) as per manufacturer's instructions. After 24 hours, cells transfected with each plasmid combination were then treated with Ang II (1 μM) or left untreated and incubated for 4 hours before cell supernatants and cell lysates were collected. Cell supernatants were analysed using a chemiluminescent SEAP reporter gene assay (Roche Applied Science) to detect SEAP production after treatment. To control for transfection efficiency, cell lysates were assayed for β-Gal using a commercially available kit (Promega).

apoE KO mice = experiment: Induction of oxidative stress (plasma 8-OHdG ELISA, aortic NOX-1/NOX-4 RT-PCR); format: in vivo, mouse; conditions: four-week infusion 1 μg/kg/min
Source text: Induction of Oxidative Stress
The induction of oxidative stress in each animal model was estimated by the measurement of plasma levels of 8-hydroxydeoxyguanosine using the OxiSelect Oxidative DNA Damage ELISA Kit (8-OHdG Quantitation; Cell Biolabs, Inc), and performed as per manufacturer's instructions. In addition, gene expression of the superoxide-producing NADPH oxidase subunits, NOX-1 and NOX-4 were quantitated in the aortae of mice using real time RT-PCR, as detailed above.

[2] = Circulating concentration of RAGE ligands (S100A8/A9, AGEs, methylglyoxal); format: in vivo, mouse; conditions: four-week infusion 1 μg/kg/min
Method: Circulating Concentration of RAGE Ligands
Changes in circulating levels of RAGE ligands were assessed in animal models. S100A8/A9 levels were estimated by ELISA (Immundiagnostik, Germany) performed according to the manufacturer's instructions. Plasma AGEs were measured by in-house ELISA. Plasma methylglyoxal, a reactive precursor of AGEs, was measured by HPLC.

PMAEC = experiment: Static adhesion assay (labelled THP-1 cells on PMAEC monolayer); format: cell-based, mouse; conditions: PMAEC from C57bl6 mice, 1 μM
Method: Functional responsiveness to Ang II was determined in PMAEC using a static adhesion assay, in which PMAEC were seeded at 50,000 cells per well into six-well plates and allowed to grow to 70% confluency before treatment with 1 μM Ang II for 24 hours. Human THP-1 cells, which mimic monocytes and macrophages in the vasculature, were stained using CellVue Burgundy Fluorescent Cell labelling Kit (LICOR) as per manufacturer's instructions before seeding them onto the endothelial cell monolayers at 3×10^5 viable cells per well and incubated for 20 minutes at 37° C. The cells that had not adhered to the endothelial cell monolayer were removed and the wells washed with PBS before fixing with 4% formalin in PBS for 30 min. The adhesion of cells was then quantitated using the ODYSSEY infra-red imager (Licor). Additionally adhered cells were photographed at ×20 using light microscopy (Olympus CKX41).

AT1 receptor = AT1 receptor (Homo sapiens, UniProt P30556); experiment: Receptor-HIT BRET, β-arrestin2/Venus with RAGE/Rluc8 and AT1 receptor; format: cell-based
Sequence of AT1 receptor (P32121 whole entry partner, one chain of several): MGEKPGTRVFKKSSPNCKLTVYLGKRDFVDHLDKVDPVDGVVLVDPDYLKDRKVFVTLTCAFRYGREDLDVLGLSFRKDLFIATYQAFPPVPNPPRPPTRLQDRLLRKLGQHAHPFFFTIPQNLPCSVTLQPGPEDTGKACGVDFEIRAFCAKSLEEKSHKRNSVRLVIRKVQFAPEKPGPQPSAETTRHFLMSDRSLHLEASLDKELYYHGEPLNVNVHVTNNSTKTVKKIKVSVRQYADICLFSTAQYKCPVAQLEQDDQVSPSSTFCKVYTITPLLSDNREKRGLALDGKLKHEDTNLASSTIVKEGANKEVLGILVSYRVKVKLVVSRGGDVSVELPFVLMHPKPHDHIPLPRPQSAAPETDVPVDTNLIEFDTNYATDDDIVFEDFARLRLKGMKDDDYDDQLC
Method: The BRET ratio was calculated by subtracting the ratio of ‘acceptor emission’ over ‘donor emission’ for a cell sample expressing Rluc8-tagged protein alone from the same ratio for a cell sample expressing both Rluc8 and Venus-tagged proteins. Alternatively, the ligand-induced BRET signal was calculated by subtracting the ratio of ‘acceptor emission’ over ‘donor emission’ for a vehicle-treated cell sample from the same ratio for a second aliquot of the same cells treated with agonist.
The fluorescence/luminescence ratio was generated by dividing the fluorescence values in arbitrary units (obtained with the EnVision) by the luminescence values also in arbitrary units (obtained as part of the BRET assay).

AT1 = biological target: T1, AT1 (Homo sapiens, UniProt P30556); experiment: Classical GPCR signalling (IP-one HTRF, EGR1) in AT1R-CHO cells; format: cell-based; set-up: expressed in transfected cells; conditions: 1 μM
T1 sequence (P30556 1-359): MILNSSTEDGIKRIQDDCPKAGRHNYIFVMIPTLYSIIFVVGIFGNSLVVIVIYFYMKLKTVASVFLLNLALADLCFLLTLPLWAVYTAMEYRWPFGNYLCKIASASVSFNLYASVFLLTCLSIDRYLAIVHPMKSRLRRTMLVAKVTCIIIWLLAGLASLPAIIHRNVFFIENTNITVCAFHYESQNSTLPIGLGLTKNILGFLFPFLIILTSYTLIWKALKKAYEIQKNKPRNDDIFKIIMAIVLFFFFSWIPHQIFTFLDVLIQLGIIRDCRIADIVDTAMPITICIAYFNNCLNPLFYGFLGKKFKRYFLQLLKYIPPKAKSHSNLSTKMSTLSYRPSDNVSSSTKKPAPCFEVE

Substance | inhibition of S100A8/A9-induced p65 expression ([1]; AT1R-CHO cells also expressing full length RAGE) | inhibition of RAGE ligand-dependent activation of wild-type RAGE (S100A8/A9) ([1]; summary statement, cell system not given) | oxidative stress (apoE KO mice; AGER/apoE DKO mice) | markers of oxidative stress (apoE KO mice; apoE KO mice) | circulating levels of RAGE ligands ([2]; AGER/apoE DKO mice) | circulating levels of RAGE ligands (S100A8/A9, AGEs, dicarbonyl precursors) ([2]; apoE KO mice) | adhesion of labelled THP-1 cells to PMAEC monolayer (PMAEC) | recruitment of βarrestin2/Venus to AT1/Rluc8 (AT1 receptor; control) | recruitment of β-arrestin2/Venus proximal to RAGE/Rluc8 (AT1 receptor; in the presence of AT1 receptor) | classical responsiveness: inositol phosphate synthesis and EGR1 induction (AT1)
L362WQRRQRRGEERKAPENQEEEEERAELNQAEEPEAGESSTGGP404 (LWQRRQRRGEERKAPENQEEEEERAELNQAEEPEAGESSTGGP; listed as Homo sapiens) [S391A-RAGE362-404, S391A mutant RAGE cytosolic tail; non-functional substitute for RAGE] | inhibitory effect | inhibits |  |  |  |  |  |  |  | 
angiotensin II (DRVYIHPF) [Ang II, cognate ligand of AT1R] |  |  | preventing | increases | preventing | increases | increased adhesion | recruitment | recruitment | induction
